In patent US20260193293A1, “PEPTIDES CAPABLE OF INHIBITING PROTEIN-PROTEIN INTERACTIONS AT GABAB1A SUBUNIT AND USES THEREOF” (UNIVERSITY OF COPENHAGEN, priority 2022, published 2026):
Like-named read-outs stand apart in the source and are kept apart here. Non-standard residues stand in square brackets, D forms with d. Residues, ends and D or L forms follow the SMILES beside them. Phe(4-F) = N[C@@H](Cc1ccc(F)cc1)C(=O)O; 2Nal = N[C@@H](Cc1ccc2ccccc2c1)C(=O)O; NMeE = CN[C@@H](CCC(=O)O)C(=O)O; NMeD = CN[C@@H](CC(=O)O)C(=O)O

Biological target: Sushi domains (SD1/2) protein
Experiment: Fluorescence polarization (FP) competition assay with AJAP-1probe, calculated Ki
Type: binding
Conditions: read-out: Ki (nM) mean ± SEM
In short: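 Ki values were derived from IC50s (sigmoidal fits, ≥ triplicate), with probe Kd obtained by saturation titration of SD1/2. Peptides displaced a 25 nM TAMRA-labelled probe; polarization read at 530/580 nm in 1% BSA-containing PBS, pH 7.4, room temperature.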

[1] = Table 6, elongation and truncation scan of PIANP binding epitope
[2] = Table 12, deep mutational scanning validation variants of PIANPWT
[3] = Table 11, deep mutational scanning validation variants of AJAP-1WT
[4] = Table 4, truncation and elongation scans of APP epitope
[5] = Table 8, Ala-, D-amino acids and N-methylation scans of AJAP-1WT

Compound: CC[C@H](C)[C@H](NC(=O)[C@H](C)NC(=O)[C@H](Cc1c[nH]c2ccccc12)NC(=O)[C@@H]1CCCN1C(C)=O)C(=O)N[C@H](C(=O)N[C@@H](Cc1c[nH]c2ccccc12)C(=O)NCC(N)=O)C(C)C [PWAIVWG] (Ac-PWAIVWG-NH2)
- Ki [1]: 579 ± 21 nM

Compound: CC[C@H](C)[C@H](NC(=O)[C@H](C)NC(=O)[C@H](Cc1ccccc1)NC(=O)[C@@H]1CCCN1C(C)=O)C(=O)N[C@H](C(=O)N[C@@H](Cc1c[nH]c2ccccc12)C(=O)NCC(=O)N1CCC[C@H]1C(=O)N[C@H](C(=O)N[C@H](C(=O)N[C@@H](CO)C(=O)N[C@@H](CCCNC(=N)N)C(=O)N[C@@H](CCC(=O)O)C(=O)N[C@@H](CC(=O)O)C(N)=O)C(C)C)[C@@H](C)O)C(C)C [PFAIVWGPTVSRED] (Ac-PFAIVWGPTVSRED-NH2)
- Ki [2]: 792 ± 11 nM

Compound: CC[C@H](C)[C@H](NC(=O)[C@H](Cc1c[nH]c2ccccc12)NC(=O)[C@H](CC(=O)O)NC(=O)[C@H](CC(=O)O)NC(=O)[C@H](CC(=O)O)NC(=O)[C@H](CCC(=O)O)NC(=O)[C@H](CCCNC(=N)N)NC(=O)[C@H](CCCNC(=N)N)NC(=O)[C@H](CCCNC(=N)N)NC(=O)[C@H](CCCNC(=N)N)NC(=O)[C@H](CCCNC(=N)N)NC(=O)[C@H](CCCNC(=N)N)NC(C)=O)C(=O)N[C@@H](CC(=O)O)C(=O)N[C@@H](Cc1c[nH]c2ccccc12)C(=O)N[C@@H](Cc1ccc(O)cc1)C(=O)N[C@@H](CC(=O)O)C(=O)N[C@@H](CO)C(=O)N[C@@H](CC(=O)O)C(=O)N[C@@H](CC(=O)O)C(=O)N[C@@H](CC(=O)O)C(N)=O (Ac-RRRRRREDDDWIDWYDSDDD-NH2)
- Ki (Table 14, CPPs tagged peptides): 70.9 ± 1 nM

Compound: CC(=O)N[C@@H](CC(=O)O)C(=O)N[C@@H](CC(=O)O)C(=O)N[C@@H](CO)C(=O)N[C@@H](CC(=O)O)C(=O)N[C@H](C(=O)N[C@@H](Cc1c[nH]c2ccccc12)C(=O)N[C@@H](Cc1c[nH]c2ccccc12)C(=O)NCC(=O)NCC(=O)N[C@@H](C)C(=O)N[C@@H](CC(=O)O)C(=O)N[C@H](C(=O)N[C@@H](CC(=O)O)C(=O)N[C@@H](Cc1ccc(O)cc1)C(=O)N[C@@H](C)C(=O)N[C@@H](CC(=O)O)C(=O)NCC(N)=O)[C@@H](C)O)C(C)C (Ac-DDSDVWWGGADTDYADG-NH2)
- Ki (Table 3, SPOT hit validation and previously reported peptides): 687 ± 17 nM

Compound: CC[C@H](C)[C@H](NC(=O)[C@H](Cc1ccccc1)NC(=O)[C@H](CCC(=O)O)NC(=O)[C@@H](NC(=O)[C@H](CCC(=O)O)NC(C)=O)[C@@H](C)O)C(=O)N[C@@H](C)C(=O)N[C@@H](Cc1c[nH]c2ccccc12)C(=O)NCC(=O)N1CCC[C@H]1C(=O)N[C@H](C(=O)NCC(=O)N[C@@H](CC(=O)O)C(=O)N[C@@H](CCC(=O)O)C(=O)N[C@@H](CCC(N)=O)C(N)=O)[C@@H](C)O (Ac-ETEFIAWGPTGDEQ-NH2)
- Ki [3]: 37 ± 2 nM

Compound: CC[C@H](C)[C@H](NC(=O)[C@H](C)NC(C)=O)C(=O)N[C@H](C(=O)N[C@@H](Cc1c[nH]c2ccccc12)C(=O)NCC(=O)N1CCC[C@H]1C(=O)N[C@H](C(=O)N[C@H](C(=O)N[C@@H](CO)C(=O)N[C@@H](CCCNC(=N)N)C(=O)N[C@@H](CCC(=O)O)C(=O)N[C@@H](CC(=O)O)C(=O)NCC(N)=O)C(C)C)[C@@H](C)O)C(C)C (Ac-AIVWGPTVSREDG-NH2)
- Ki [1]: 5550 ± 11 nM

Compound: CC(=O)N[C@@H](CCC(=O)O)C(=O)N[C@@H](CC(=O)O)C(=O)N[C@@H](CC(=O)O)C(=O)N[C@@H](CO)C(=O)N[C@@H](CC(=O)O)C(=O)N[C@H](C(=O)N[C@@H](CC(=O)O)C(=O)N[C@@H](Cc1c[nH]c2ccccc12)C(=O)NCC(=O)NCC(=O)N[C@@H](C)C(=O)N[C@@H](CC(=O)O)C(=O)N[C@H](C(=O)N[C@@H](CC(=O)O)C(N)=O)[C@@H](C)O)C(C)C (Ac-EDDSDVDWGGADTD-NH2)
- Ki (Table 10, deep mutational scanning validation variants of APPWT): 4804 ± 43 nM

Compound: CC[C@H](C)[C@H](NC(=O)[C@H](CC(=O)O)NC(=O)[C@H](CC(=O)O)NC(=O)[C@H](Cc1ccc(O)cc1)NC(=O)[C@H](CC(=O)O)NC(=O)[C@H](CC(=O)O)NC(=O)[C@H](CO)NC(=O)[C@H](CC(=O)O)NC(=O)[C@H](CCC(=O)O)NC(=O)[C@H](Cc1ccc2ccccc2c1)NC(=O)[C@H](CCCNC(=N)N)NC(=O)[C@H](CCCNC(=N)N)NC(=O)[C@H](CCCNC(=N)N)NC(=O)[C@H](CCCNC(=N)N)NC(C)=O)C(=O)N[C@@H](CC(=O)O)C(=O)N[C@@H](CC(=O)O)C(=O)N[C@@H](CC(=O)O)C(=O)N[C@@H](Cc1c[nH]c2ccccc12)C(N)=O [reference compound] (Ac-RRRR[2Nal]EDSDDYDDIDDDW-NH2)
- Ki (Table 14, CPPs tagged peptides): 143000 ± 2500 nM

Compound: CC(=O)N[C@@H](C)C(=O)N[C@@H](CC(=O)O)C(=O)N[C@@H](C)C(=O)N[C@@H](CCC(=O)O)C(=O)N[C@@H](CCC(=O)O)C(=O)N[C@@H](CC(=O)O)C(=O)N[C@@H](CC(=O)O)C(=O)N[C@@H](CO)C(=O)N[C@@H](CC(=O)O)C(=O)N[C@H](C(=O)N[C@@H](Cc1c[nH]c2ccccc12)C(=O)N[C@@H](Cc1c[nH]c2ccccc12)C(=O)NCC(=O)NCC(=O)N[C@@H](C)C(=O)N[C@@H](CC(=O)O)C(=O)N[C@H](C(=O)N[C@@H](CC(=O)O)C(=O)N[C@@H](Cc1ccc(O)cc1)C(=O)N[C@@H](C)C(=O)N[C@@H](CC(=O)O)C(N)=O)[C@@H](C)O)C(C)C (Ac-ADAEEDDSDVWWGGADTDYAD-NH2)
- Ki [4]: 500 ± 16 nM

Compound: CC[C@H](C)[C@H](NC(=O)[C@H](Cc1ccccc1)NC(=O)[C@H](CCC(=O)O)NC(=O)[C@@H](NC(=O)[C@H](CCC(=O)O)NC(C)=O)C(C)C)C(=O)N[C@@H](C)C(=O)N[C@@H](Cc1c[nH]c2ccccc12)C(=O)NCC(=O)N1CCC[C@H]1C(=O)N[C@H](C(=O)NCC(=O)N[C@@H](CC(=O)O)C(=O)N[C@@H](CCC(=O)O)C(=O)N[C@@H](CC(=O)O)C(N)=O)[C@@H](C)O [EVEFIAWGPTGDED] (Ac-EVEFIAWGPTGDED-NH2)
- Ki [3]: 28 ± 1 nM

Compound: CC[C@H](C)[C@H](NC(=O)[C@@H](NC(=O)[C@H](Cc1c[nH]c2ccccc12)NC(=O)[C@@H]1CCCN1C(C)=O)C(C)C)C(=O)N[C@H](C(=O)N[C@@H](Cc1c[nH]c2ccccc12)C(=O)NCC(=O)N1CCC[C@H]1C(=O)N[C@H](C(=O)N[C@H](C(=O)N[C@@H](CO)C(=O)N[C@@H](CCCNC(=N)N)C(=O)N[C@@H](CCC(=O)O)C(=O)N[C@@H](CC(=O)O)C(N)=O)C(C)C)[C@@H](C)O)C(C)C [PWVIVWGPTVSRED] (Ac-PWVIVWGPTVSRED-NH2)
- Ki [2]: 302 ± 4 nM

Compound: EDDS(Fphe)VWWGGADTD (Ac-EDDS[Phe(4-F)]VWWGGADTD-NH2)
- Ki (Table 16, ncAAs incorporated peptides): 117 ± 2 nM

Compound: CC(=O)N[C@@H](CCC(=O)O)C(=O)N[C@@H](CCC(=O)O)C(=O)N[C@@H](CC(=O)O)C(=O)N[C@@H](CC(=O)O)C(=O)N[C@@H](CO)C(=O)N[C@@H](CC(=O)O)C(=O)N[C@H](C(=O)N[C@@H](Cc1c[nH]c2ccccc12)C(=O)N[C@@H](Cc1c[nH]c2ccccc12)C(=O)NCC(=O)NCC(=O)N[C@@H](C)C(N)=O)C(C)C (Ac-EEDDSDVWWGGA-NH2)
- Ki [4]: 1020 ± 18 nM

Compound: CC(=O)N[C@@H](CCC(=O)O)C(=O)N(C)[C@@H](CC(=O)O)C(=O)N[C@@H](CC(=O)O)C(=O)N[C@@H](CO)C(=O)N[C@@H](CC(=O)O)C(=O)N[C@H](C(=O)N[C@@H](Cc1c[nH]c2ccccc12)C(=O)N[C@@H](Cc1c[nH]c2ccccc12)C(=O)NCC(=O)NCC(=O)N[C@@H](C)C(=O)N[C@@H](CC(=O)O)C(=O)N[C@H](C(=O)N[C@@H](CC(=O)O)C(N)=O)[C@@H](C)O)C(C)C (Ac-E[NMeD]DSDVWWGGADTD-NH2)
- Ki (Table 7, Ala-, D-amino acids and N-methylation scans of APPWT): 655 ± 24 nM

Compound: ETEFlaWGPTGDED (Ac-ETEFI[dA]WGPTGDED-NH2)
- Ki (Table 8, in μM): > 6250 nM

Compound: CC[C@H](C)[C@H](NC(=O)[C@H](Cc1ccccc1)NC(=O)[C@H](CCC(=O)O)NC(=O)[C@@H](NC(=O)[C@H](C)NC(C)=O)[C@@H](C)O)C(=O)N[C@@H](C)C(=O)N[C@@H](Cc1c[nH]c2ccccc12)C(=O)NCC(=O)N1CCC[C@H]1C(=O)N[C@H](C(=O)NCC(=O)N[C@@H](CC(=O)O)C(=O)N[C@@H](CCC(=O)O)C(=O)N[C@@H](CC(=O)O)C(N)=O)[C@@H](C)O [ATEFIAWGPTGDED] (Ac-ATEFIAWGPTGDED-NH2)
- Ki [5]: 53 ± 2 nM

Compound: CC[C@H](C)[C@H](NC(=O)[C@H](Cc1ccccc1)NC(=O)[C@H](CCC(=O)O)NC(=O)[C@@H](NC(=O)[C@H](CCC(=O)O)NC(C)=O)[C@@H](C)O)C(=O)N[C@@H](C)C(=O)N[C@@H](Cc1c[nH]c2ccccc12)C(=O)NCC(=O)N1CCC[C@H]1C(=O)N[C@H](C(=O)NCC(=O)N[C@@H](CC(=O)O)C(=O)N[C@@H](C)C(=O)N[C@@H](CC(=O)O)C(N)=O)[C@@H](C)O (Ac-ETEFIAWGPTGDAD-NH2)
- Ki [5]: 38 ± 1 nM

Compound: CC[C@H](C)[C@H](NC(=O)[C@H](Cc1ccccc1)NC(=O)[C@H](CCC(=O)O)NC(=O)[C@@H](NC(=O)[C@H](CCC(=O)O)NC(C)=O)[C@@H](C)O)C(=O)N[C@@H](C)C(=O)N[C@@H](Cc1c[nH]c2ccccc12)C(=O)N[C@@H](Cc1ccc(O)cc1)C(=O)NCC(=O)N1CCC[C@H]1C(=O)N[C@H](C(=O)NCC(=O)N[C@@H](CC(=O)O)C(=O)N[C@@H](CCC(=O)O)C(=O)N[C@@H](CC(=O)O)C(N)=O)[C@@H](C)O [ETEFIAWYGPTGDED] (Ac-ETEFIAWYGPTGDED-NH2)
- Ki (Table 13, peptides for affinity maturation): 195 ± 7 nM

Compound: CC[C@H](C)[C@H](NC(=O)[C@H](Cc1ccccc1)NC(=O)[C@H](CCC(=O)O)NC(=O)[C@@H](NC(=O)[C@H](CCC(=O)O)N(C)C(C)=O)[C@@H](C)O)C(=O)N[C@@H](C)C(=O)N[C@@H](Cc1c[nH]c2ccccc12)C(=O)NCC(=O)N1CCC[C@H]1C(=O)N[C@H](C(=O)NCC(=O)N[C@@H](CC(=O)O)C(=O)N[C@@H](CCC(=O)O)C(=O)N[C@@H](CC(=O)O)C(N)=O)[C@@H](C)O [(N-Me-E)TEFIAWGPTGDED] (Ac-[NMeE]TEFIAWGPTGDED-NH2)
- Ki [5]: 35 ± 1 nM
